From PubChem BioAssay AID720512 (Broad Institute, 2013)
Activity calls are given as the source filed them. The rule behind the calls is not given here.

biological target: Toxin B (TcdB) glycohydrolase, Clostridioides difficile 630; assay: TcdB glycohydrolase inhibitors, dose response, biochemical, cherry-pick, plate reader (AID 720512); details: recombinant TcdB glycohydrolase activity

SMILES	AC50
Nc1ccc2nc(-c3cccs3)[nH]c2c1	> 39 µM (inactive)
CCn1c(=S)[nH]c2c(=O)n(C)c(=O)n(C)c21	10.8 µM
CCNC(=O)C[C@H]1CC[C@@H]2[C@@H](COc3ccc(NC(=O)c4cccc(OC)c4)cc3C(=O)N2C)O1	> 39 µM (inactive)
COc1cc2c(cc1O)CC[n+]1cc3c(OC)c(OC)ccc3cc1-2	> 39 µM (inactive)
ON=C1c2ccccc2-c2ccc(O)cc21	22 µM
CCCNC(=O)C[C@H]1CC[C@@H]2[C@@H](COc3ccc(NC(=O)c4ccc5c(c4)OCO5)cc3C(=O)N2C)O1	> 39 µM (inactive)

same assay, conditions: recombinant TcdB glycohydrolase activity, at 19.5 µM (top of the series)

SMILES	activity change, negative = inhibition
COc1ccc(NC(=O)CN(C)C(=O)c2cccc(NS(=O)(=O)c3ccc(Br)cc3)c2)cc1	inactive
O=C(C[C@@H]1CC[C@H]2[C@@H](COC[C@H](O)CN2C(=O)c2ccccn2)O1)NC1CCC1	inactive
CCOc1ccccc1NC(=O)CCNS(=O)(=O)c1cccc2nonc12	inactive
NNC(=O)CNC(=O)Nc1n[nH]c(=S)s1	inactive
Cc1ccc(S(=O)(=O)Oc2ccccc2/C=C2/SC(=O)NC2=O)cc1	inactive
C=CCn1c(SCC(=O)N2CC(=O)Nc3ccccc32)nc2scc(-c3ccccc3)c2c1=O	inactive
COc1ccc(C(=O)Nc2ccc3c(c2)C(=O)N(C)[C@@H]2CC[C@H](CC(=O)NCC4CC4)O[C@H]2CO3)cc1	inactive
O=C(CSc1cccc2cccnc12)N/N=C/c1ccc(O)cc1	inactive
COc1ccc(-c2csc(NC(=O)c3ccccc3F)c2C(=O)O)cc1	inactive
CC(=O)Nc1ccccc1O	inactive
CN1C(=O)NC(c2ccc(O)cc2)C2=C1CN(c1ccc(O)cc1)C2=O (configuration not stated)	inactive
CC(C)Cc1nnc(NC(=O)CCC(=O)NCc2ccccc2Cl)s1	inactive
COc1cc(/C=N/NC2=NCCCCC2)ccc1O	inactive
O=c1[nH]c(CSc2nnc(Cc3ccccc3)o2)nc2ccccc12	inactive
COc1ccc(Cl)cc1NC(=O)Cn1c(NCCO)nc2ccccc21	inactive
O=C(C[C@@H]1C[C@H]2c3cc(NC(=O)c4ccc5c(c4)OCO5)ccc3O[C@H]2[C@H](CO)O1)NCc1cccc(F)c1	inactive
COC(=O)[C@H]1C[C@@H]1[C@H](NP(=O)(c1ccccc1)c1ccccc1)c1ccccc1	inactive
CCOC(=O)c1ccc(N=c2sc(C(=O)OC)cc(=O)n2CCCN2CCOCC2)cc1	inactive
Cc1ccn(CCC(=O)NC2CC(C)(C)Cc3c2cnn3-c2ccccc2C)n1 (configuration not stated)	inactive
Nc1nc(CCOc2ccc(F)cc2)cs1	inactive
COc1cc(/C=C(/NC(=O)c2ccccc2)C(=O)Nc2ccc(O)cc2)c([N+](=O)[O-])cc1OC	inactive
CCOC(=O)c1ccc2ncc(-c3ccccc3)nc2c1	inactive
COc1ccc(OCc2cc(-c3ccc(Cl)cc3)no2)cc1	inactive
COc1ccc(/C=C\c2onc(C)c2S(=O)(=O)N2CCC(C(=O)NCc3ccco3)CC2)cc1	inactive
O=C(NC(=S)NCc1ccccc1)c1cccnc1	inactive

same assay, conditions: recombinant TcdB glycohydrolase activity, at 21 µM (top of the series)

SMILES	activity change, negative = inhibition
CNC(=O)C[C@H]1CC[C@@H]2[C@H](COc3ccc(NS(=O)(=O)c4ccccc4C)cc3C(=O)N2C)O1	inactive
